The term IC50 denotes the concentration needed to halve the response being measured.

Activity calls are given as the source filed them. No cut-off for these calls is given here.

Data set [1] deals with Mus musculus. Put plainly: Anti-inflammatory activity in LPS-induced BALB/c mouse model of […] assessed as inhibition of LPS-induced increase in TNF-alpha expression in serum at 10 mg/kg, po preadministered with compound for 3 days followed by LPS stimulation for 6 hrs after 1 hrs compound administration on day 3 by ELISA. It is filed as functional, organism-based. The note with it: time 3.0 day.

The test system of data set [2] is Mus musculus. Put plainly: Anti-inflammatory activity in LPS-induced BALB/c mouse model of […] assessed as inhibition of LPS-induced increase in NO production in BALF at 10 mg/kg, po preadministered with compound for 3 days followed by LPS stimulation for 6 hrs after 1 hrs compound administration on day 3 by Griess reagent based method. It counts as functional, organism-based. To be noted: time 3.0 day. A general note: Nitrite, measured by Griess reagent, commonly stands in for NO production.

Data set [3] concerns Mus musculus. Put plainly: Anti-inflammatory activity in LPS-induced BALB/c mouse model of […] assessed as inhibition of LPS-induced increase in IL-6 expression in serum at 10 mg/kg, po preadministered with compound for 3 days followed by LPS stimulation for 6 hrs after 1 hrs compound administration on day 3 by ELISA. It is filed as functional, organism-based. To be noted: time 3.0 day.

Data set [4] deals with Mus musculus. Put plainly: Anti-inflammatory activity in LPS-induced BALB/c mouse model of […] assessed as attenuation of inflammatory cell infiltration in lungs at 10 mg/kg, po preadministered with compound for 3 days followed by LPS stimulation for 6 hrs after 1 hrs compound administration on day 3 by H&E staining based analysis. It counts as functional, organism-based. To be noted: time 3.0 day.

Data set [5] has as its system Mus musculus. Put plainly: Anti-inflammatory activity in LPS-induced BALB/c mouse model of […] assessed as inhibition of LPS-induced increase in NO production in serum at 10 mg/kg, po preadministered with compound for 3 days followed by LPS stimulation for 6 hrs after 1 hrs compound administration on day 3 by Griess reagent based method. It counts as functional, organism-based. The note with it: time 3.0 day.

Data set [6] concerns Mus musculus. Put plainly: Anti-inflammatory activity in LPS-induced BALB/c mouse model of […] assessed as attenuation of lung alveolar hemorrhage at 10 mg/kg, po preadministered with compound for 3 days followed by LPS stimulation for 6 hrs after 1 hrs compound administration on day 3 by H&E staining based analysis. It is filed as functional, organism-based. The note with it: time 3.0 day.

For data set [7], the system named is Mus musculus. Put plainly: Anti-inflammatory activity in LPS-induced BALB/c mouse model of […] assessed as inhibition of LPS-induced increase in IL-6 expression in BALF at 10 mg/kg, po preadministered with compound for 3 days followed by LPS stimulation for 6 hrs after 1 hrs compound administration on day 3 by ELISA. It is filed as functional, organism-based. The note with it: time 3.0 day. In general terms: In an ELISA, binding on a coated surface is turned into a signal by an enzyme label.

Data set [8] concerns Mus musculus. Put plainly: In vivo inhibition of NFkappaB activation in LPS-induced BALB/c mouse model of […] assessed as inhibition of NFkappaB degradation at 10 mg/kg, po preadministered with compound for 3 days followed by LPS stimulation for 6 hrs after 1 hrs compound administration on day 3 by Western blot analysis. It counts as functional, organism-based. To be noted: time 3.0 day.

Data set [9] concerns Mus musculus. Put plainly: Anti-inflammatory activity in LPS-induced BALB/c mouse model of […] assessed as inhibition of LPS-induced increase in lung W/D ratio at 10 mg/kg, po preadministered with compound for 3 days followed by LPS stimulation for 6 hrs after 1 hrs compound administration on day 3. It counts as functional, organism-based. The note with it: time 3.0 day.

The subject of data set [10] is Mus musculus. Put plainly: In vivo inhibition of NFkappaB activation in LPS-induced BALB/c mouse model of […] assessed as inhibition of IkappaBalpha degradation at 10 mg/kg, po preadministered with compound for 3 days followed by LPS stimulation for 6 hrs after 1 hrs compound administration on day 3 by Western blot analysis. To be noted: time 3.0 day. It is filed as functional, organism-based. (Immunoblotting shows a protein as a band on a membrane.)

For data set [11], the system named is Mus musculus. Put plainly: Anti-inflammatory activity in LPS-induced BALB/c mouse model of […] assessed as inhibition of LPS-induced increase in TNF-alpha expression in BALF at 10 mg/kg, po preadministered with compound for 3 days followed by LPS stimulation for 6 hrs after 1 hrs compound administration on day 3 by ELISA. The note with it: time 3.0 day. It counts as functional, organism-based.

A short description of data set [12]: Cytotoxicity against mouse RAW264.7 cells assessed as inhibition of cell growth incubated for 24 hrs by MTT assay. It counts as toxicity, cell-based.
Another data set deals with RAW264.7. Put plainly: Cytotoxicity against mouse RAW264.7 cells assessed as reduction in cell viability at 30 uM incubated for 24 hrs by MTT assay relative to control. To be noted: raw264.7, 24 h. It is filed as toxicity, cell-based.

Consider `Cc1ccc(-c2cc(C(F)(F)F)nn2-c2ccc(S(N)(=O)=O)cc2)cc1`, for which the outcome in the data set with Mus musculus [1], with Mus musculus [2], in the data set with Mus musculus [3], in the data set with Mus musculus [4], in the data set on Mus musculus [5] and in the data set on Mus musculus [6] was Active. Moreover, the result with Mus musculus [7], with Mus musculus [9] and in the data set with Mus musculus [11] was Active. Further, the inhibition entry in the data set on Mus musculus [8] and in the data set on Mus musculus [10] was “Active” throughout.

Regarding `CC(=O)O[C@H]1C[C@@]2(C)[C@@H](C[C@@H](O)[C@H]3[C@@]4(C)CC[C@@H](O)[C@@H](C)[C@@H]4CC[C@@]32C)/C1=C(\CCC=C(C)C)C(=O)O` [FUSIDIC ACID], the result in the data set with Mus musculus [1], in the data set on Mus musculus [2], in the data set on Mus musculus [3], in the data set on Mus musculus [4], with Mus musculus [5] and in the data set with Mus musculus [6] was Active. The result with Mus musculus [7], in the data set on Mus musculus [9] and with Mus musculus [11] was Active. The IC50 at 24 h in [12] was 61.3 µM. In the data set with RAW264.7, the Activity was determined as 101.08%. For the same compound, the inhibition result in the data set with Mus musculus [8] and with Mus musculus [10] was “Active” each time.

Regarding `CC(=O)O[C@H]1C[C@@]2(C)[C@@H](C[C@@H](O)[C@H]3[C@@]4(C)CC[C@@H](O)[C@@H](C)[C@@H]4CC[C@@]32C)/C1=C(\CCC=C(C)C)C(=O)OCc1cn(-c2ccc(F)cc2)nn1`, the IC50 at 24 h in data set [12] was found to be 46.5 µM. In addition, the Activity with RAW264.7 is recorded as 100.85%.

Values taken from ChEMBL document CHEMBL5625219, “Design, synthesis fusidic acid derivatives alleviate acute lung injury via inhibiting MAPK/NF-κB/NLRP3 pathway” (Eur J Med Chem, 2023).
